# Reference: ChEMBL document CHEMBL4482303, “Test system for measuring mest activity as well as methods and uses involving the same” (2012)
# How the values were obtained:
# [1] = biological target: T1, Glycerol-3-phosphate acyltransferase 1, mitochondrial (Homo sapiens) (UniProt Q9HCL2); test: (§1) Inhibition of GPAT1 (unknown origin) expressed in Sf9 cell membranes assessed as reduction in glycerol 3-phosphate acyltransferase activity at 10 uM using [3H]-glycerol 3-phosphate and palmitoyl CoA incubated for 60 mins by scintillation counting assay relative to control
# T1 sequence (whole entry): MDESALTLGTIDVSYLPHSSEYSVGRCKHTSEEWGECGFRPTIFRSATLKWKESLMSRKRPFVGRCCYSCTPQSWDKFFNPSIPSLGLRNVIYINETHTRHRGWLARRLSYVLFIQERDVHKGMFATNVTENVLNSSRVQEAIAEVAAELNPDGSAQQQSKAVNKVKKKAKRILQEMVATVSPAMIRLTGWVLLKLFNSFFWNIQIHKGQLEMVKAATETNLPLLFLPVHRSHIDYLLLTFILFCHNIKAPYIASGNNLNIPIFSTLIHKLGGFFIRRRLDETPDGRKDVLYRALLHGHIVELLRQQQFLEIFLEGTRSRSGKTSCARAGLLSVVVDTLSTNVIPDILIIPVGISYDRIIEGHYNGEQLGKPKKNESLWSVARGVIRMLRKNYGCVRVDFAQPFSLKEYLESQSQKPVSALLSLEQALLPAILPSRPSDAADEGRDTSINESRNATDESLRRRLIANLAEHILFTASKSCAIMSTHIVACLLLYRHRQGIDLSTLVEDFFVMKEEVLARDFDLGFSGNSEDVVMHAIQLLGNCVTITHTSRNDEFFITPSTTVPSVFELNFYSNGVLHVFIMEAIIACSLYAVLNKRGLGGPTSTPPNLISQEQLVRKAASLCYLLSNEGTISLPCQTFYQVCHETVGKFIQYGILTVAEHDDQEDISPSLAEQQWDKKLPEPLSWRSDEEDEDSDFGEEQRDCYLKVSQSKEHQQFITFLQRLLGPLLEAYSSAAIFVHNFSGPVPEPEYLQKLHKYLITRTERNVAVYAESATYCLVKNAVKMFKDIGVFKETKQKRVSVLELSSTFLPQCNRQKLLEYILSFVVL
# [2] = biological target: T2, Glycerol-3-phosphate acyltransferase 4 (Homo sapiens) (UniProt Q86UL3); test: (§2) Inhibition of GPAT4 (unknown origin) expressed in Sf9 cell membranes assessed as reduction in glycerol 3-phosphate acyltransferase activity at 1 uM using [3H]-glycerol 3-phosphate and palmitoyl CoA incubated for 60 mins by scintillation counting assay relative to control
# T2 sequence (whole entry): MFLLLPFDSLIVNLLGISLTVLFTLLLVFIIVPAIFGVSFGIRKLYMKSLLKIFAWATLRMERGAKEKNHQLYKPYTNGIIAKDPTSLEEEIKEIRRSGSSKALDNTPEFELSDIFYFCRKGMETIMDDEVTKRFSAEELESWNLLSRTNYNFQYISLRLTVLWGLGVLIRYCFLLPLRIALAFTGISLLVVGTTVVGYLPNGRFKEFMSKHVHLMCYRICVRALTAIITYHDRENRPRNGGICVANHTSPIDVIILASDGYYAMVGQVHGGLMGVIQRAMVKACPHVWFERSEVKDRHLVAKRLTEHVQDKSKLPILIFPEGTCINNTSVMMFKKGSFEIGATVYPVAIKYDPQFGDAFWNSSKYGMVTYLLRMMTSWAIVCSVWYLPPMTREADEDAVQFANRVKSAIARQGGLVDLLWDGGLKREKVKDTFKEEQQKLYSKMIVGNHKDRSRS
# [3] = biological target: T3, Glycerol-3-phosphate acyltransferase 3 (Homo sapiens) (UniProt Q53EU6); test: (§3) Inhibition of GPAT3 (unknown origin) expressed in Sf9 cell membranes assessed as reduction in glycerol 3-phosphate acyltransferase activity at 0.3 uM using [3H]-glycerol 3-phosphate and palmitoyl CoA incubated for 60 mins by scintillation counting assay relative to control
# T3 sequence (whole entry): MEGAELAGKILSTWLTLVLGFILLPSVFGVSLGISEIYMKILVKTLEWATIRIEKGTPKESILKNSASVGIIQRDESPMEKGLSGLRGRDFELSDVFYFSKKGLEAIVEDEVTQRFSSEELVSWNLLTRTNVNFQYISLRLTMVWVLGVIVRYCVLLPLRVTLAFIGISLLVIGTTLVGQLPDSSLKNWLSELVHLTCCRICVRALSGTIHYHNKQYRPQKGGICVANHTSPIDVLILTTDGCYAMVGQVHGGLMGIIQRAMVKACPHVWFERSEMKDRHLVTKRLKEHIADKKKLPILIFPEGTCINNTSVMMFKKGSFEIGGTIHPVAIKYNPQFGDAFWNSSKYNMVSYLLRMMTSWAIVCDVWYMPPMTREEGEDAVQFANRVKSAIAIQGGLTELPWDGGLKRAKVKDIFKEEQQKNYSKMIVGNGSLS
# [4] = biological target: T4, Mesoderm-specific transcript homolog protein (Homo sapiens) (UniProt Q5EB52); test: as §3, with “human recombinant MEST T580B (11 to 335 amino acids)” for “GPAT3 (unknown origin)”
# T4 sequence (whole entry): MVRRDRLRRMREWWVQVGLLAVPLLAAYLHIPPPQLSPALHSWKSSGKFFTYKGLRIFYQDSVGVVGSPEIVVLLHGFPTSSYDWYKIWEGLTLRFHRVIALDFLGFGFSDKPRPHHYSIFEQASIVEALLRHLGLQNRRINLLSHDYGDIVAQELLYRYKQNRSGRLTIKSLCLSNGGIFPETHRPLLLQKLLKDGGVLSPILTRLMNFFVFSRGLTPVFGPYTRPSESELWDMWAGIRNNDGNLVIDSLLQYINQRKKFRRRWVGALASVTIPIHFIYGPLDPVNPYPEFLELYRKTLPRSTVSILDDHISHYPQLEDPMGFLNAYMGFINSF
# [5] = biological target: T2, Glycerol-3-phosphate acyltransferase 4 (Homo sapiens); test: Inhibition of GPAT4 (unknown origin) expressed in Sf9 cell membranes assessed as reduction in glycerol 3-phosphate acyltransferase activity at 0.03 uM using [3H]-glycerol 3-phosphate and palmitoyl CoA incubated for 60 mins by scintillation counting assay relative to control
# [6] = biological target: T4, Mesoderm-specific transcript homolog protein (Homo sapiens); test: as §1, with “human recombinant MEST T579B (2 to 335 amino acids)” for “GPAT1 (unknown origin)”
# [7] = biological target: T4, Mesoderm-specific transcript homolog protein (Homo sapiens); test: as §2, with “human recombinant MEST T580B (11 to 335 amino acids)” for “GPAT4 (unknown origin)”
# [8] = biological target: T2, Glycerol-3-phosphate acyltransferase 4 (Homo sapiens); test: (§4) Inhibition of GPAT4 (unknown origin) expressed in Sf9 cell membranes assessed as reduction in glycerol 3-phosphate acyltransferase activity at 0.1 uM using [3H]-glycerol 3-phosphate and palmitoyl CoA incubated for 60 mins by scintillation counting assay relative to control
# [9] = biological target: T1, Glycerol-3-phosphate acyltransferase 1, mitochondrial (Homo sapiens); test: Inhibition of GPAT1 (unknown origin) expressed in Sf9 cell membranes assessed as reduction in glycerol 3-phosphate acyltransferase activity at 3 uM using [3H]-glycerol 3-phosphate and palmitoyl CoA incubated for 60 mins by scintillation counting assay relative to control
# [10] = biological target: T1, Glycerol-3-phosphate acyltransferase 1, mitochondrial (Homo sapiens); test: Inhibition of GPAT1 (unknown origin) expressed in Sf9 cell membranes assessed as reduction in glycerol 3-phosphate acyltransferase activity at 1 uM using [3H]-glycerol 3-phosphate and palmitoyl CoA incubated for 60 mins by scintillation counting assay relative to control
# [11] = biological target: T4, Mesoderm-specific transcript homolog protein (Homo sapiens); test: as §4, with “human recombinant MEST T579B (2 to 335 amino acids)” for “GPAT4 (unknown origin)”
# [12] = biological target: T4, Mesoderm-specific transcript homolog protein (Homo sapiens); test: (§5) Inhibition of human recombinant MEST T579B (2 to 335 amino acids) expressed in Sf9 cell membranes assessed as reduction in glycerol 3-phosphate acyltransferase activity using [3H]-glycerol 3-phosphate and palmitoyl CoA incubated for 60 mins by scintillation counting assay
# [13] = biological target: T3, Glycerol-3-phosphate acyltransferase 3 (Homo sapiens); test: Inhibition of GPAT3 (unknown origin) expressed in Sf9 cell membranes assessed as reduction in glycerol 3-phosphate acyltransferase activity at 10 uM using [3H]-glycerol 3-phosphate and palmitoyl CoA incubated for 60 mins by scintillation counting assay relative to control
# [14] = biological target: T4, Mesoderm-specific transcript homolog protein (Homo sapiens); test: as §5, with “T580B (11” for “T579B (2”, “activity at 0.03 uM” for “activity”, “assay relative to control” for “assay”
# [15] = biological target: T3, Glycerol-3-phosphate acyltransferase 3 (Homo sapiens); test: Inhibition of GPAT3 (unknown origin) expressed in Sf9 cell membranes assessed as reduction in glycerol 3-phosphate acyltransferase activity at 1 uM using [3H]-glycerol 3-phosphate and palmitoyl CoA incubated for 60 mins by scintillation counting assay relative to control
# [16] = biological target: T4, Mesoderm-specific transcript homolog protein (Homo sapiens); test: as §5, with “T580B (11” for “T579B (2”, “activity at 3 uM” for “activity”, “assay relative to control” for “assay”
# [17] = biological target: T3, Glycerol-3-phosphate acyltransferase 3 (Homo sapiens); test: Inhibition of GPAT3 (unknown origin) expressed in Sf9 cell membranes assessed as reduction in glycerol 3-phosphate acyltransferase activity at 0.1 uM using [3H]-glycerol 3-phosphate and palmitoyl CoA incubated for 60 mins by scintillation counting assay relative to control
# [18] = biological target: T2, Glycerol-3-phosphate acyltransferase 4 (Homo sapiens); test: Inhibition of GPAT4 (unknown origin) expressed in Sf9 cell membranes assessed as reduction in glycerol 3-phosphate acyltransferase activity at 0.3 uM using [3H]-glycerol 3-phosphate and palmitoyl CoA incubated for 60 mins by scintillation counting assay relative to control
# [19] = biological target: T4, Mesoderm-specific transcript homolog protein (Homo sapiens); test: as §5, with “T580B (11” for “T579B (2”, “activity at 0.1 uM” for “activity”, “assay relative to control” for “assay”
# [20] = biological target: T4, Mesoderm-specific transcript homolog protein (Homo sapiens); test: as §5, with “T580B (11” for “T579B (2”, “activity at 10 uM” for “activity”, “assay relative to control” for “assay”
# [21] = biological target: T4, Mesoderm-specific transcript homolog protein (Homo sapiens); test: (§6) Inhibition of human recombinant MEST T579B (2 to 335 amino acids) expressed in Sf9 cell membranes assessed as reduction in glycerol 3-phosphate acyltransferase activity at 1 uM using [3H]-glycerol 3-phosphate and palmitoyl CoA incubated for 60 mins by scintillation counting assay relative to control
# [22] = biological target: T4, Mesoderm-specific transcript homolog protein (Homo sapiens); test: as §6, with “0.03” for “1”
# [23] = biological target: T3, Glycerol-3-phosphate acyltransferase 3 (Homo sapiens); test: Inhibition of GPAT3 (unknown origin) expressed in Sf9 cell membranes assessed as reduction in glycerol 3-phosphate acyltransferase activity at 3 uM using [3H]-glycerol 3-phosphate and palmitoyl CoA incubated for 60 mins by scintillation counting assay relative to control
# [24] = biological target: T4, Mesoderm-specific transcript homolog protein (Homo sapiens); test: Inhibition of human recombinant MEST T579B (2 to 335 amino acids) expressed in Sf9 cell membranes assessed as reduction in glycerol 3-phosphate acyltransferase activity at 3 uM using [3H]-glycerol 3-phosphate and palmitoyl CoA incubated for 60 mins by scintillation counting assay relative to control
# [25] = biological target: T1, Glycerol-3-phosphate acyltransferase 1, mitochondrial (Homo sapiens); test: Inhibition of GPAT1 (unknown origin) expressed in Sf9 cell membranes assessed as reduction in glycerol 3-phosphate acyltransferase activity at 0.03 uM using [3H]-glycerol 3-phosphate and palmitoyl CoA incubated for 60 mins by scintillation counting assay relative to control
# [26] = biological target: T1, Glycerol-3-phosphate acyltransferase 1, mitochondrial (Homo sapiens); test: Inhibition of GPAT1 (unknown origin) expressed in Sf9 cell membranes assessed as reduction in glycerol 3-phosphate acyltransferase activity at 0.3 uM using [3H]-glycerol 3-phosphate and palmitoyl CoA incubated for 60 mins by scintillation counting assay relative to control
# [27] = biological target: T3, Glycerol-3-phosphate acyltransferase 3 (Homo sapiens); test: Inhibition of GPAT3 (unknown origin) expressed in Sf9 cell membranes assessed as reduction in glycerol 3-phosphate acyltransferase activity at 0.03 uM using [3H]-glycerol 3-phosphate and palmitoyl CoA incubated for 60 mins by scintillation counting assay relative to control
# [28] = biological target: T2, Glycerol-3-phosphate acyltransferase 4 (Homo sapiens); test: Inhibition of GPAT4 (unknown origin) expressed in Sf9 cell membranes assessed as reduction in glycerol 3-phosphate acyltransferase activity at 3 uM using [3H]-glycerol 3-phosphate and palmitoyl CoA incubated for 60 mins by scintillation counting assay relative to control
# [29] = biological target: T2, Glycerol-3-phosphate acyltransferase 4 (Homo sapiens); test: Inhibition of GPAT4 (unknown origin) expressed in Sf9 cell membranes assessed as reduction in glycerol 3-phosphate acyltransferase activity at 10 uM using [3H]-glycerol 3-phosphate and palmitoyl CoA incubated for 60 mins by scintillation counting assay relative to control
# [30] = biological target: T4, Mesoderm-specific transcript homolog protein (Homo sapiens); test: as §6, with “0.3” for “1”
# [31] = biological target: T1, Glycerol-3-phosphate acyltransferase 1, mitochondrial (Homo sapiens); test: Inhibition of GPAT1 (unknown origin) expressed in Sf9 cell membranes assessed as reduction in glycerol 3-phosphate acyltransferase activity at 0.1 uM using [3H]-glycerol 3-phosphate and palmitoyl CoA incubated for 60 mins by scintillation counting assay relative to control
smiles,measurement,setting,value
O=C(CO)COP(=O)(O)O,inhibition,[1],72%
same,inhibition,[2],9%
same,inhibition,[3],12%
same,inhibition,[4],8%
same,inhibition,[5],6%
same,inhibition,[6],69%
same,inhibition,[7],18%
same,inhibition,[8],-2%
same,inhibition,[9],47%
same,inhibition,[10],29%
same,inhibition,[11],-6%
same,inhibition,[12],Dose-dependent effect
same,inhibition,[13],57%
same,inhibition,[14],-6%
same,inhibition,[15],26%
same,inhibition,[16],45%
same,inhibition,[17],-4%
same,inhibition,[18],15%
same,inhibition,[19],10%
same,inhibition,[20],76%
same,inhibition,[21],27%
same,inhibition,[22],-5%
same,inhibition,[23],38%
same,inhibition,[24],51%
same,inhibition,[25],4%
same,inhibition,[26],11%
same,inhibition,[27],-9%
same,inhibition,[28],29%
same,inhibition,[29],54%
same,inhibition,[30],24%
same,inhibition,[31],10%
